Measurements taken from article PMC12459020, “Chemical Probes that Target a Dissociative LuxR-Type Quorum Sensing Receptor in Gram-Negative Bacteria” (ACS Chemical Biology, 2025).
Entries after “also recorded” stand apart in the source; their conditions may differ. Like-named read-outs stand apart in the source and are kept apart here.

Experiments:
[1] = tested on: ExpR1; conditions: cited from earlier work; for ExpR1 antagonism: 5 µM compound against 5 µM OHHL, negative values indicate potential activators, ref 6 (SI; Palmer et al., 2011); for ExpR1 [%] (agonism, activation): compounds at 200 μM, cellulase activity in P. versatile AC5117, ref Palmer et al., 2011 (main ref 44, SI ref 6)
[2] = tested on: ExpR2; conditions: cited from earlier work; for ExpR2 antagonism (percent inhibition): 5 µM compound against 5 µM OHHL, negative values indicate potential activators; for ExpR2 antagonism (percent inhibition) / IC50: ref 6 (SI; Palmer et al., 2011); for ExpR2 [%] (agonism, percent activation): compounds at 200 μM, cellulase activity in P. versatile AC5099, ref Palmer et al., 2011 (main ref 44, SI ref 6); for IC50: previously reported phenotypic reporter data
[3] = tested on: LuxR; conditions: cited from earlier work; for LuxR antagonism: 5 µM compound against 5 µM OHHL, negative values indicate potential activators, ref 6 (SI; Palmer et al., 2011); for LuxR [%] (agonism, activation): compounds at 200 μM, luminescence in V. fischeri ES114 (ΔluxI), ref Palmer et al., 2011 (main ref 44, SI ref 6)
[4] = biological target: T1, EsaR (Pantoea stewartii subsp. stewartii, UniProt P54293); assay: cell-based; conditions: for activation at 100 µM / inhibition at 100 µM: 3.5 h; for activation at 100 µM: read-out: EsaR-repressed (pesaR) [%] agonism; for inhibition at 100 µM: read-out: EsaR-repressed (pesaR) antagonism
T1 construct: expressed in transfected cells; host or cells: E. coli JLD271 (K12 ΔsdiA), arabinose-induced pJN105-esaR
T1 sequence (P54293 whole entry): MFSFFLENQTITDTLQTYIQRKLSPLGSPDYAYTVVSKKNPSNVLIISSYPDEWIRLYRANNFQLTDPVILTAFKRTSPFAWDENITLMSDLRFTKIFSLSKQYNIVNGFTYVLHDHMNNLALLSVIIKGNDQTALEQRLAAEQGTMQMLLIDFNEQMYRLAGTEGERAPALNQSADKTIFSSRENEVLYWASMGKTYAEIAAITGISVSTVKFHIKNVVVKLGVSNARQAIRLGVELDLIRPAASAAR
Excerpt: (§1) EsaR transcriptional activation and repression were examined using E. coli and P. stewartii reporters (strains and plasmids listed in Table S1; see Methods section for assay details). […] We constructed reporters in E. coli based on previously reported EsaR reporters (Table S1). Each strain contained an EsaR expression plasmid (pJN105-esaR) and a reporter plasmid with either an EsaR-activated promoter (pesaS) or an EsaR-repressed promoter (pesaR) upstream of luxABCDE or GFP.
(§2) Gibson assembly was used to create all constructs. Plasmid pJN105-esaR was created by amplifying esaR from pAC-esaR and inserting it into pJN105. pesaSlux was created by inserting pesaS, amplified from pPesaR-AC:gfp, into the pCS-pesaRlux backbone. The pesaR promoter was amplified from pCS-pesaRlux and inserted into the pPesaR-AC:gfp backbone to create pesaR:GFP. P. stewartii reporter strains were created by transforming pesaR:GFP or pPesaR-AC:gfp into ESN51 by conjugation using E. coli S17 λpir as the donor strain. See SI for details of E. coli ExpR2 reporter construction.
(§3) Overnight cultures were diluted 1:10 in LB medium with appropriate antibiotics and grown at 37 °C (200 rpm) to an OD600 of 0.22–0.27 before induction with 4 mg mL^–1 arabinose. OD600 was measured by placing 200 μL of culture into a 96-well plate and reading optical density using the BioTek Synergy 2 plate reader. Assays were performed in technical triplicate in clear-bottom, white and clear-bottom, black 96-well microtiter plates (Corning Costar 3903 and 3904) for luminescence and fluorescence reporters, respectively. Compounds were dissolved in DMSO, and 2 μL of this stock, or DMSO as a negative control, was added to each well prior to adding 198 μL of induced culture. Plates were incubated at 37 °C (200 rpm) for 3.5 h. Each well was mixed by pipetting before reading OD600 and either luminescence or fluorescence. Single-point screens were performed with one or two biological replicates, and all dose–response curves were performed in biological triplicate. EC50 values were calculated based on a nonlinear regression of log(concentration) vs response (three parameters) using GraphPad Prism 9 software.

[5] = biological target: T1, EsaR; assay: cell-based; conditions: for activation at 100 µM / inhibition at 100 µM: 3.5 h; for activation at 100 µM: read-out: EsaR-activated (pesaS) [%] agonism; for inhibition at 100 µM: read-out: EsaR-activated (pesaS) antagonism; for EsaR agonism, in words: E. coli EsaR reporters, primary screen at 100 μM
Excerpt: as §1, §2, §3

Row | SMILES | ExpR1 antagonism [1] | ExpR1 [%] (agonism, activation) [1] | ExpR2 antagonism (percent inhibition) [2] | ExpR2 [%] (agonism, percent activation) [2] | LuxR antagonism [3] | LuxR [%] (agonism, activation) [3] | activation at 100 µM [4] | inhibition at 100 µM [4] | activation at 100 µM [5] | inhibition at 100 µM [5] | EsaR agonism, in words [5] | fold less potent than OHHL in EsaR (EC50 ratio) ([5]; E. coli EsaR-activated reporter EC50 values) | IC50 [2] | EC50 [4] | EC50 [5]
1 | O=C(Cc1cccc(I)c1)N[C@H]1CCOC1=O [C11, 3-iodo PHL] | 83% | 32% | 63% | 61% | 78% | 28% | 44% | -56% | 65% | -57% | agonized EsaR | ~300 fold | – | – | –
2 | O=C(Cc1ccccc1I)N[C@H]1CCOC1=O [C12] | 65% | 11% | 55% | 24% | 63% | 7% | 9% | 4% | -9% | -12% | – | – | – | – | –
3 | O=C(Cc1ccc([N+](=O)[O-])cc1)N[C@H]1CCOC1=O [C13] | 44% | 15% | 32% | 24% | 47% | 24% | 14% | 12% | 14% | -29% | – | – | – | – | –
4 | O=C(Cc1ccccc1[N+](=O)[O-])N[C@H]1CCOC1=O [C15] | 27% | 9% | 3% | 19% | 23% | 4% | -1% | 0% | -10% | -6% | – | – | – | – | –
5 | CCCCCCCCCC(=O)N[C@H]1CCOC1=O [DHL, reference compound] | 91% | 6% | 76% | 44% | 96% | 12% | 4% | -59% | 17% | -11% | – | – | 900 nM | – | –
6 | Cc1cccc(CC(=O)N[C@H]2CCOC2=O)c1 [E1] | 74% | 6% | 62% | 13% | 78% | 5% | 12% | 2% | 25% | 1% | – | – | – | – | –
7 | COc1cccc(CC(=O)N[C@H]2CCOC2=O)c1 [E2] | 68% | 4% | 59% | 24% | 71% | 7% | 3% | -42% | 4% | 0% | – | – | – | – | –
8 | CSc1cccc(CC(=O)N[C@H]2CCOC2=O)c1 [E7, 3-SCH3 PHL] | 79% | 0% | 71% | 13% | 88% | 4% | 11% | -3% | 23% | -26% | nearly inactive | – | – | – | –
9 | O=C(Cc1cc(C(F)(F)F)cc(C(F)(F)F)c1)N[C@H]1CCOC1=O [E9] | 4% | 9% | 16% | 15% | 0% | 107% | 41% | -17% | 60% | -67% | – | – | – | – | –
10 | O=C(Cc1ccc2ccccc2c1)N[C@H]1CCOC1=O [E12] | 58% | 8% | 5% | 56% | 83% | 2% | 7% | 37% | 0% | -10% | – | – | – | – | –
11 | O=C(Cc1cccc2ccccc12)N[C@H]1CCOC1=O [E13] | 69% | 7% | -6% | 95% | 84% | 3% | 0.5% | -11% | -11% | -2% | – | – | – | – | –
12 | CCCCCC(=O)N[C@H]1CCOC1=O [HHL, hexanoyl HL, reference compound] | 67% | 5% | 12% | 94% | 69% | 2% | 98% | -126% | 100% | -96% | strongly activated | – | – | – | –
13 | O=C(Cc1ccc(Br)cc1)N[C@H]1CCOC1=O [K3] | 71% | 4% | 62% | 25% | 79% | 3% | 18% | -76% | 9% | -24% | – | – | 850 nM | – | –
14 | CCCCCCCC(=O)CC(=O)N[C@H]1CCOC1=O [ODHL, reference compound] | 42% | 6% | 33% | 48% | 47% | 2% | 37% | -94% | 65% | -69% | – | – | – | ≥ 101000 nM | ≥ 65000 nM
15 | CCCCCCCC(=O)N[C@H]1CCOC1=O [OHL, octanoyl HL, reference compound] | 78% | 19% | 38% | 79% | 86% | 25% | 91% | -40% | 98% | -95% | strongly activated; also recorded: agonized EsaR | – | – | – | –
16 | CCCCCC(=O)CC(=O)N[C@H]1CCOC1=O [OOHL, 3-(oxo)-octanoyl HL, reference compound] | 65% | 29% | 26% | 78% | 63% | 24% | 91% | -138% | 100% | -89% | strongly activated | – | – | – | –
17 | CCCCCCCCCC(=O)CC(=O)N[C@H]1CCOC1=O [OdDHL, 3-(oxo)-dodecanoyl HL, reference compound] | 85% | 2% | 73% | 17% | 86% | 2% | 26% | -10% | 34% | -45% | agonized EsaR | – | 750 nM | – | –
